Paper PMC7765409 (International Journal of Molecular Sciences, 2020)
pIC50: −log10 of the molar value. Read-outs that look alike come from different tables or passages of the source.

Legend:
[1] = test system: FXR target genes; experiment: transcriptomic (RNA-seq) analysis of OCA pre-incubated TG/FA-treated hiPSC-Hep; type: cell-based, human; conditions: TG/FA+OCA vs TG/FA
Description: The phenotypic assay was measured and quantified by BODIPY 493/503-stained neutral lipid droplets multiplexed with Hoechst dye to detect viable cell count, as shown by the process in Supplementary Figure S2. Obeticholic acid (OCA), a clinically advanced therapeutic and farnesoid X receptor (FXR) agonist evaluated in phase III trials for the treatment of NASH [40], was used as an inhibitor control of lipid accumulation (Figure 1A). […] Our results are in accordance with therapeutic plasma concentrations of OCA (0.290 µM) and with studies performed in a human liver in vitro system (0.5 µM). […] FXR target genes, including fibroblast growth factor 19 (FGF19), solute carrier family 51 subunit Beta (SLC51B), cytochrome P450 7A1 (CYP7A1) and perilipin 1 (PLIN1) are regulated by OCA under our treatment conditions.
Z’ = 1 − (3 SD of sample group + 3 SD of negative control)/(mean of sample group−mean of negative control). FA/TG-treated wells were defined as general sample group and BSA-treated wells were defined as negative controls for calculating Z’-factor. In our assay, the Z’ criteria were as follows: Z’ = 0.5–1.0 corresponds to an excellent assay; Z’ = 0–0.5 corresponds to a suboptimal assay; Z’ < 0 corresponds to an unsuccessful assay. Percent inhibition of lipid accumulation was calculated based on the positive (BSA-treated) and negative (FA/TG-treated) controls on each plate: % inhibition = 100 * [(compound value–AVEneg)/(AVEpos–AVEneg)]. RNA-seq data were analyzed by iPathwayGuide (Advaita Bioinformatics: http://www.advaitabio.com/ipathwayguide.html) as described in [35]. Differences between two groups were analyzed using Student’s t-tests. Fold-change expression values obtained from RT-qPCR were analyzed by one-way analysis of variance (ANOVA) followed by post hoc comparisons of group means with the Tukey’s multiple comparison tests at an overall confidence level of 95% using Prism software (GraphPad).

[2] = parameters: method as in PMID 29226620; conditions: cited from earlier work
[3] = test system: DGAT2 mRNA; parameters: method as in PMID 30254132; conditions: after 4 and 18 h treatment with thapsigargin and free-fatty acids; cited from earlier work
[4] = test system: lipid droplet accumulation in TG/FA-treated hiPSC-Hep; experiment: hiPSC-Hep ER-stress (TG/FA) induced lipid droplet accumulation high-content assay, integrated spot signal (BODIPY 493/503); type: cell-based, human
Description: Cryopreserved hiPSC-derived hepatocytes (iCell Hepatocytes 2.0; Cellular Dynamics International Madison, WI) plated at a density of 36 K/well in 384-well on collagen I coated Corning Biocoat 384-well plates (BD Biosciences, 101306), were cultured to promote hepatic differentiation and maturation into hepatic-like cells as previously described. Hepatocytes were plated according to the manufacturer’s protocol in a volume of 50 µL/well using BioTek^TM Microflo^TM select dispenser (#7170011, BioTek Instruments) for high-throughput and high-content analysis assay (HT/HCA) drug discovery. After plating cells were cultured according to vendor specifications in a cell culture incubator at 37 °C, 5% CO2 for 3–4 h. Then, 40 µL spent medium was aspirated using multi-channel automated pipette handling system (Integra ViaFlo 96/384) and replaced with 40 µL (80% exchange) of fresh plating medium. Approximately 24 h post-plating 80% of medium was replaced every day thereafter. At day 5 of differentiation, 40 µL/well spent medium was replaced with maintenance medium (MM) consisting of William’s E medium (Thermo Fisher Scientific) supplemented with 0.1 µM dexamethasone and hepatocyte maintenance supplement pack (Thermo Fisher Scientific) for an additional 2–3 days before HCA. The overview of automated HT system for hiPSC-derived hepatocytes differentiation, staining and image analysis for phenotypic screening is depicted in Figure S2. Primary screening hit confirmation and dose response studies were performed on different batches of hiPSC-derived hepatocytes.
To induce hepatic triglycerides (TAG) accumulation, before staining, cells were treated with 20 μL of 2× FA mixture, consisting of different proportions of oleic acid (OA-BSA, 25 µM, Sigma, #O3008), palmitic acid (PA-BSA, 200 µM, Agilent Technologies, #102720100) and thapsigargin (TG, 1 µM, Abcam, #120286) with a total volume of 40 μL/well. The TG/FA mixture was dispensed with BioTek^TM Microflo^TM select dispenser (#7170011, BioTek Instruments) and incubated for 18 h. Next, to label TAG accumulation stored into cytoplasmic lipid droplets, upon treatment, living cells were washed two times with warm Dulbecco’s Phosphate-Buffered Saline 1X (PBS, Corning, #21-031CV) with a handheld 384-channel electronic pipette device and then incubated for 15 min with a lipophilic dye, BODIPY 493/503 (8 ug/mL Life technologies, #D3922-green), in PBS at 37 °C. BODIPY (493/503) has become the standard dye utilized by scientists to study lipid droplets in live cells. After three washes with PBS cells were fixed with 4% paraformaldehyde methanol-free (PFA, Electron Microscopy Science, #15710) in PBS for 15 min at room temperature (RT). Cell health was monitored by Hoechst 33342 (10 ug/mL, Molecular Probe, #H21492) staining in PBS for nuclear count. After TAG staining the 384-assay plates were loaded in an automated confocal microscope with Opera High Content Imaging System (PerkinElmer, Waltham, MA, USA). Dyes were excited and images were captured on the Hoechst 3342 and Alexa Fluor 488 channels and signals were collected with a long pass filter 410 and 505 nm, for nuclei and TAG, respectively, at objective 20× air objective for HCA. To capture enough cells (>600) for the analysis, eight fields per well were imaged. Hoechst 33342 fluorescence was used to identify the nuclear region and cell counts. To assess intracellular fat deposits, BODIPY 493/503 fluorescence intensity was measured inside the cytoplasm region.
For the HCA screen, compounds tested for their inhibitory effects, were used as single dose at a 10 μM final concentration of compound in DMSO in each well (0.1% DMSO) in 20 μL of maintenance medium. Prior to compound addition, 30 µL/well of medium was removed from hiPSC-Hep cells screening plates with ViaFlo ([…]). Pre-spotted 80 nL of 10 mM compound were diluted to 20 μM (0.2% DMSO) in 40 μL of maintenance medium in the source 384-well plate. […]

[5] = test system: oleic acid-induced lipid droplet accumulation in hiPSC-Hep; experiment: oleic acid-induced lipid droplet accumulation in hiPSC-Hep; type: cell-based, human; conditions: exogenous oleic acid
Description: (§1) A monolayer of hiPSC-Hep, with hepatocyte-like morphology, gene expression and function, was used as a cell model for induction of steatosis and high-content analysis to detect neutral lipid droplet accumulation and inhibition. […] Incubation of the cells with a saturated fluorescently labeled fatty acid analog confirmed localization into neutral lipid vacuoles (Supplementary Figure S1C–F).

[6] = test system: palmitic acid-induced lipid accumulation in hiPSC-Hep; experiment: palmitic acid-induced lipid accumulation in hiPSC-Hep; type: cell-based, human; conditions: exogenous palmitic acid
Description: as §1

SMILES | CYP7A1 gene regulation [1] | FGF19 gene regulation [1] | PLIN1 gene regulation [1] | SLC51B gene regulation [1] | therapeutic plasma concentrations [2] [µM] | effect on DGAT2 expression [3] | pIC50 ([4]; Homo sapiens, cells pre-treated 24 h and co-treated additional 18 h with TG/FA, read-out: half maximal inhibitory concentration (IC50) for reduction of lipid accumulation) | IC50 ([4]; Homo sapiens, cells pre-treated 24 h and co-treated additional 18 h with TG/FA, read-out: pIC50 for reduction of lipid accumulation (converted)) [nM] | lipid content of lipid droplet-stained cells ([4]; OCA at 20 µM in TG/FA-treated cells vs BSA-treated control) | inhibition of oleic acid-induced lipid droplet accumulation [5] | inhibition of oleic acid-induced lipid droplet accumulation ([5]; listed as triacsin C) | inhibition of palmitic acid-induced lipid accumulation [6]
CC[C@H]1[C@@H](O)[C@@H]2[C@H](CC[C@]3(C)[C@@H]([C@H](C)CCC(=O)O)CC[C@@H]23)[C@@]2(C)CC[C@@H](O)C[C@@H]12 [OCA, Obeticholic acid] | downregulation | upregulation | upregulation | downregulation | 0.290 | significantly inhibited | 6.20 | 631 | reduced lipid content to control levels |  |  | 
CCC/C=C/C/C=C/C=C/C=N/NN=O [Triacsin C] |  |  |  |  |  |  |  |  |  | fully inhibits | completely inhibits | did not inhibit
